# Experimental data: patent publication US8716521B2 (priority 2008, dated 2014)
# Structures can show the parent of a compound that is named as a salt. Where two headings read alike, the source gives them in different places.
# Experiments:
# [1] = aqueous solution in the narrow pH range of solubility
# [2] = Dissolution rate and vinyl sulfone generation during compounding at different temperatures; type: physicochemical; settings: for dissolution time: 50 mL batch size
# Source text: The following items are some critical issues for the compounding of the drug product. • If the solution pH is higher than target pH, it can be titrated with 1.0 NHCL to the target pH. If the pH is too low, it will not be possible to back titrate with NaOH due to the sensibility of canfosfamide hydrochloride to alkaline environment. • Due to the acidity of the drug substance, the rate of dissolution of drug substance influences the pH of the compounding solution. A quick dissolution could reduce the pH faster and therefore reduce the time of exposure of the drug to high pH. […] The solution was then analyzed by HPLC.
# An additional study of two liter batch size was conducted. Canfosfamide hydrochloride was dissolved into three batches of pH 6.5, 0.1 M citrate buffer and monitored at different temperatures; 5° C., 20° C. and 40° C. […] In the second batch at 20° C. (room temperature), the drug was totally dissolved after 20 minutes. […] The third batch consisted of adding drug at room temperature and allowing the temperature to increase to 40° C. over 90 minutes. […] These experiments support controlling the compounding procedure at room temperature until all drug is dissolved and filtered.
# [3] = Stability in solution at 1 mg/mL, effect of pH (vinyl sulfone generation); type: physicochemical; settings: 1 mg/mL in 0.1 M citrate buffer
# Protocol: A stability study was performed by monitoring vinyl sulfone generation. Canfosfamide hydrochloride was dissolved at 1 mg/mL into 0.1 M citrated buffer from pH 4.5 to pH 6.5. The solutions were incubated at 25° C. for 24 hours. Vinyl sulfone generation was monitored.
# [4] = not given; remark: listed apart in the source
# [5] = physchem
# [6] = Vinyl sulfone degradation on titration with NaOH
# [7] = pH and osmolality of 50 mg/mL solution in citrate buffer
smiles,measurement,setting,value
N[C@@H](CCC(=O)N[C@@H](CS(=O)(=O)CCOP(=O)(N(CCCl)CCCl)N(CCCl)CCCl)C(=O)N[C@@H](C(=O)O)c1ccccc1)C(=O)O [Canfosfamide],time aqueous formulations are stable before decomposition products are observed,[1],6 to 12 h
N[C@@H](CCC(=O)N[C@@H](CS(=O)(=O)CCOP(=O)(N(CCCl)CCCl)N(CCCl)CCCl)C(=O)N[C@@H](C(=O)O)c1ccccc1)C(=O)O [canfosfamide hydrochloride],dissolution time,[2]; 5° C.,45 min
same,dissolution time,[2]; room temperature,25 min
same,vinyl sulfone generated at 5° C. versus room temperature,"[2]; during dissolution, HPLC",not significantly different
same,dissolution observation,"[2]; two liter batch, pH 6.5 0.1 M citrate buffer, 5° C., after 80 minutes",minor particles were observed
same,time to total dissolution,"[2]; two liter batch, pH 6.5 0.1 M citrate buffer, 20° C. (room temperature)",20 min
same,vinyl sulfone generated,"[2]; two liter batch, temperature increased from room temperature to 40° C. over 90 minutes",higher than the two previous batches
same,Percent vinyl sulfone at 25° C.,"[3]; pH 4.5, 6 hrs",0.1%
same,Percent vinyl sulfone at 25° C.,"[3]; pH 4.5, 24 hrs",0.4%
same,Percent vinyl sulfone at 25° C.,"[3]; pH 5.0, 6 hrs",0.2%
same,Percent vinyl sulfone at 25° C.,"[3]; pH 5.0, 24 hrs",1.1%
same,Percent vinyl sulfone at 25° C.,"[3]; pH 5.5, 6 hrs",0.6%
same,Percent vinyl sulfone at 25° C.,"[3]; pH 5.5, 24 hrs",2.9%
same,Percent vinyl sulfone at 25° C.,"[3]; pH 6.0, 6 hrs",1.7%
same,Percent vinyl sulfone at 25° C.,"[3]; pH 6.0, 24 hrs",8.2%
same,Percent vinyl sulfone at 25° C.,"[3]; pH 6.5, 6 hrs",6.6%
same,Percent vinyl sulfone at 25° C.,"[3]; pH 6.5, 24 hrs",24.2%
same,amount dissolved by citrate buffer,0.1 M citrate buffer at pH 6.5,approximately 100 mg/mL
same,pH at which soluble,aqueous,above 4.2
same,pH at which stability is limited,aqueous,> 5.0
same,% Purity 25° C.,"[4]; 3 Month, bulk solution 50 mg/mL at pH 4.6, data is ± 2%",69%
same,% Purity 25° C.,"[4]; Day 0, bulk solution 50 mg/mL at pH 4.6, data is ± 2%",92%
same,% Purity 25° C.,"[4]; Day 3, bulk solution 50 mg/mL at pH 4.6, data is ± 2%",93%
same,% Purity 25° C.,"[4]; Day 7, bulk solution 50 mg/mL at pH 4.6, data is ± 2%",89%
same,% Purity 25° C.,"[4]; Day 28, bulk solution 50 mg/mL at pH 4.6, data is ± 2%",84%
same,% Purity 25° C.,"[4]; Day l, bulk solution 50 mg/mL at pH 4.6, data is ± 2%",89%
same,solubility,"[5]; citrate buffer, pH 5.5, aqueous buffer",174 mg/mL
same,solubility,[5]; water,~2 mg/mL
same,content of vinyl sulfone before titration,[6]; 50 mg/mL in pH 4.3 citrate buffer,0.64%
same,content of vinyl sulfone after titration,[6]; 50 mg/mL in pH 4.3 citrate buffer titrated with 0.1 N NaOH to pH 4.5,1.3%
same,content of vinyl sulfone after titration,[6]; 50 mg/mL in pH 4.3 citrate buffer titrated with 1.0 N NaOH to pH 4.5,6.5%
same,pH of solution,[7]; 50 mg/mL dissolved in 0.1 M citrate buffer at pH 6.5,about 4.6
same,osmolality,[7]; 50 mg/mL in 100 mM citrate buffer,about 400 mM
